For three molecules, mass density, viscosity and Normal boiling temperature results are on record in the NIST ThermoML archive (doi:10.1016/j.fluid.2005.07.010).

For this series the following is noted: Liquid; for mass density / viscosity: 298.15 K, 101.33 kPa; for Normal boiling temperature: Ebulliometric method (Recirculating still).

The structures appear in SMILES notation. ± gives the expanded uncertainty stated by the source.

Take `CC(=O)O` [acetic acid]: the mass density – broadly, the mass of a sample divided by its volume – was determined as 1043.6 ± 0.6 kg/m3; the viscosity (in general, the internal friction of a fluid under shear) worked out at 1.115 ± 0.035 mPa·s; the Normal boiling temperature was determined as 117.80 ± 0.2 °C.
For `CCO` [ethanol] the same measures were 785.4 ± 0.6 kg/m3, 1.082 ± 0.034 mPa·s and 78.28 ± 0.2 °C.
The corresponding values for `CCOC(C)=O` [ethyl acetate] are 894.4 ± 0.4 kg/m3, 0.426 ± 0.016 mPa·s and 77.12 ± 0.2 °C.
